For experiment [1], the target named is T1, AnAtg4 (Aspergillus niger ATG4) (Aspergillus niger, UniProt A2QY50).
T1 construct: 6xHis-AnAtg4
T1 sequence (A2QY50 1-404): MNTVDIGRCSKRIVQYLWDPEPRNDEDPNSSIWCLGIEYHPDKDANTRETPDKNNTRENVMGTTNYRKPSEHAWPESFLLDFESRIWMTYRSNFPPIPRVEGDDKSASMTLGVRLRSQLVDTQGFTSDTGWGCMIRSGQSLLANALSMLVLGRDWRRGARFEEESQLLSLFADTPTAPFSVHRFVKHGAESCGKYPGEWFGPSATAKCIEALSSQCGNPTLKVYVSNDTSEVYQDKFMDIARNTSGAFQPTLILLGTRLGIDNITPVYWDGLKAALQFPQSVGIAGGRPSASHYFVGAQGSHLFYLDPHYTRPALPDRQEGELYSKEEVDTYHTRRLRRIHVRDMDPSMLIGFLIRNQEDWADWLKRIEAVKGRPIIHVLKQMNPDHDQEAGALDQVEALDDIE
Put plainly: in vitro cleavage of AnAtg8 sensor by purified AnAtg4 at […] compound (immunoblot). The format is biochemical. On the technique in general: A western blot detects proteins with antibodies after separation by electrophoresis.

The target of experiment [2] is T2, CnAtg4T (truncated Cryptococcus neoformans ATG4) (Cryptococcus neoformans, UniProt J9VN57).
T2 construct: gene CNAG_02662; CnAtg4T, 6xHis, truncated version excluding the disordered N-terminus, retaining the catalytic triad Cys563/Asp782/His784
T2 sequence (J9VN57 entry or part of it): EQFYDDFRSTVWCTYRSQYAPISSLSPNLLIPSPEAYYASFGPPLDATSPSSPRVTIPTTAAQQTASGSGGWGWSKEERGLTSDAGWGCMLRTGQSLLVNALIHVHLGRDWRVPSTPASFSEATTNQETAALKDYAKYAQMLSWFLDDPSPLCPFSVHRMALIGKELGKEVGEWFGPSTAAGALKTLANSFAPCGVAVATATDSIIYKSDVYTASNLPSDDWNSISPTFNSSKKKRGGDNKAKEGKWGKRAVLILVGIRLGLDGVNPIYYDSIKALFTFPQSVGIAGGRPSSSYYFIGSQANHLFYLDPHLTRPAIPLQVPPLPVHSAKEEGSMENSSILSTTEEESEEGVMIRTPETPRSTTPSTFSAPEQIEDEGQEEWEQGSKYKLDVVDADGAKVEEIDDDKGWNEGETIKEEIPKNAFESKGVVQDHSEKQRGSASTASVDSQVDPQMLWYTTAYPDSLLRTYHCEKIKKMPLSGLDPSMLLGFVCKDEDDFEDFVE
The experiment can be described thus: microscale thermophoresis with labelled purified CnAtg4T; also in vitro cleavage assay (IC50 […]) and BRET. Format: binding. Background: Microscale thermophoresis detects binding through changes in fluorescence in a small temperature gradient.

Experiment [3] deals with T2, CnAtg4T (truncated Cryptococcus neoformans ATG4). The experiment can be described thus: in vitro cleavage of CnAtg8 sensor by purified CnAtg4T (immunoblot) and BRET. Format: biochemical.

The record followed here is PMC12723477, “Evaluating the Antifungal Potential of Autophagy-Related Protein 4 (ATG4) Inhibitors against Human Fungal Pathogens” (Journal of Microbiology and Biotechnology, 2025).

As a reminder, the Kd is the concentration at which binding is half-saturated. Higher therefore signals lower affinity. For `O=c1c2ccccc2[se]n1-c1ccccc1` [EB, Ebselen], the “in vitro cleavage of AnAtg8 sensor by purified AnAtg4 at 10 μM compound (immunob)” value (from here on “in vitro cleavage of AnAtg8 sensor”) in experiment [1] is “the inhibitors exhibited comparable inhibitory effects on the ATG8 maturation catalyzed by AfAtg4 and AnAtg4 (Fig. 2D)”. Also, the Kd in experiment [2] is 0.7 ± 0.32 µM.
In general, IC50 refers to the concentration that gives 50% inhibition. Turning to `O=C1c2ccccc2[Se](=O)N1c1ccccc1` (stereo not drawn) [EO, ebselen oxide], the IC50 in experiment [3] worked out at 4.8 µM. In addition, the “in vitro cleavage of AnAtg8 sensor” value in experiment [1] was “the inhibitors exhibited comparable inhibitory effects on the ATG8 maturation catalyzed by AfAtg4 and AnAtg4 (Fig. 2D)”.
As for `Cc1ccc(-n2sc3ccccc3c2=O)cc1` [PT, 2-(4-methylphenyl)-1,2-benzisothiazol-3(2H)-one], in experiment [3], the IC50 worked out at 8.44 µM. For the same compound, in experiment [1], the “in vitro cleavage of AnAtg8 sensor” value is “the inhibitors exhibited comparable inhibitory effects on the ATG8 maturation catalyzed by AfAtg4 and AnAtg4 (Fig. 2D)”.
